# Laboratory results: US20260248775A1, “NEW INHIBITORS OF PHOSPHATIDYLINOSITOL 3-KINASE” (INSTITUT NATIONAL DE LA SANTÉ ET DE LA RECHERCHE MÉDICALE, priority 2022, published 2026)
# What was measured:
# PI3K-δ = PI3K-δ (Homo sapiens, UniProt O00329); assay: PI3K-inhibitory activity, enzymatic HTRF assay, PI3K-δ; format: biochemical; details: read-out: Class IC50 PI3K-δ
# PI3K-γ = PI3K-γ (Homo sapiens, UniProt P48736); assay: PI3K-inhibitory activity, enzymatic HTRF assay, PI3K-γ; format: biochemical; details: read-out: Class IC50 PI3K-γ
# Description: [The procedure below names another target; the source lists this target under the same test.] (§1) Inhibitory activity of compounds against the Human PtdIns (4,5) P 3-kinase activity was quantified employing the enzymatic HTRF (Homogeneous Time Resolved Fluorescence) Assay.
# (§2) PI3K p110a/[…] (h) is incubated in assay buffer containing 10 μM phosphatidylinositol 4,5-bisphosphate and Mg/ATP (concentration as required). The reaction is initiated by the addition of the ATP solution. After incubation for 30 minutes at room temperature, the reaction is stopped by the addition of stop solution containing EDTA and biotinylated phosphatidylinositol-3,4,5-trisphosphate. Finally, detection buffer is added, which contains europium-labelled anti-GST monoclonal antibody, GST-tagged GRP1 PH domain and streptavidin allophycocyanin. The plate is then read in time resolved fluorescence mode and the homogeneous time-resolved fluorescence (HTRF) signal is determined according to the formula HTRF=10000×(Em665 nm/Em620 nm)
# PI3K-β = PI3K-β (Homo sapiens, UniProt P42338); assay: PI3K-inhibitory activity, enzymatic HTRF assay, PI3K-β; format: biochemical; details: read-out: Class IC50 PI3K-β
# Description: [The procedure below names another target; the source lists this target under the same test.] as §1, §2
# [1] = biological target: PI3K-α (PI3K p110a/p65a (h)) (Homo sapiens, UniProt P42336); assay: PI3K-inhibitory activity, enzymatic HTRF assay, PI3K-α; format: biochemical; details: 10 μM PIP2, 30 minutes at room temperature, read-out: Class IC50 PI3K-α
# Description: as §1, §2
# [2] = Blood glucose after repeated oral gavage in C57B16 mice; format: in vivo, mouse; details: 50 mg/kg oral gavage daily for 5 days, measured on day 6, C57B16 mice, vs vehicle
# Description: C57B16 mice (n=6 mice per group, 3 males and 3 females) aged of 8 weeks old were daily treated by either vehicle or Compound 5 (50 mg/kg) during 5 consecutive days through oral gavage.
# On day 6, blood glucose concentrations were measured at different time points before and after drug administration.
# [3] = Blood insulin concentration after repeated oral gavage in C57B16 mice; format: in vivo, mouse; details: 50 mg/kg oral gavage daily for 5 days, plasma on day 6, male C57B16 mice, FIG. 2
# Description: FIG. 2 illustrates the variation of insulin over time for the groups of mice treated either with a vehicle or with Compound 5 of the invention. Ordinate: insulin (ng/ml). Abscissa: time (hours).
# C57B16 mice (n=3 mice per group, 3 males) aged of 8 weeks old were daily treated by either vehicle or Compound 5 (50 mg/kg) during 5 consecutive days through oral gavage. On day 6, insulin concentrations were measured at different time points before and after drug administration.
# Insulin level was measured in plasma (7 μL in duplicate) using MSD u.plex (Mesoscale, ref 1526HK).
# NZBWF1/J mice = assay: Kidney lesions in lupus model, uninephrectomized NZBWF1/J mice; format: in vivo, mouse; details: 50 mg/kg/day orally
# Description: FIG. 1 (A to C) illustrates the ability of Compound 5 of the invention to improve kidney lesions in NZBWF1/J mouse model. A. Urinary albumin to creatinine ratio (Ualb/Cre) (Ordinate, mg/mmol). Abscissa (From left to right): Vehicle and Compound 5 (50 mg/kg). B. Blood urea nitrogen level (BUN) (Ordinate, mmol/L). Abscissa (From left to right): Vehicle and Compound 5 (50 mg/kg). C. Glomerular lesion score of kidneys 4 weeks after uninephrectomy followed by treatment with either the vehicle or Compound 5 (n=6 mice per group). AU: Arbitrary Unit (Ordinate). Abscissa (From left to right): Vehicle and Compound 5 (50 mg/kg).
# NZBWF1/J mice gradually develop immune glomerulonephritis characterized by proteinuria and kidney dysfunction starting around 25 weeks of age. The uninephrectomy model was employed and uninephrectomy was performed on 12 female mice at 24 weeks of age.
# As the incidence and severity of symptoms are more pronounced in females, only females were used in this study. The mice were then randomly assigned to receive either the vehicle (n=6) or Compound 5 50 mg/kg/day orally (n=6) for a duration of 4 weeks. At the end of the treatment period, the mice were sacrificed and their kidney histology was compared to samples obtained during the uninephrectomy procedure.
# PI3K-α (PI3K p110a/p65a (h)), sequence (P42336 whole entry): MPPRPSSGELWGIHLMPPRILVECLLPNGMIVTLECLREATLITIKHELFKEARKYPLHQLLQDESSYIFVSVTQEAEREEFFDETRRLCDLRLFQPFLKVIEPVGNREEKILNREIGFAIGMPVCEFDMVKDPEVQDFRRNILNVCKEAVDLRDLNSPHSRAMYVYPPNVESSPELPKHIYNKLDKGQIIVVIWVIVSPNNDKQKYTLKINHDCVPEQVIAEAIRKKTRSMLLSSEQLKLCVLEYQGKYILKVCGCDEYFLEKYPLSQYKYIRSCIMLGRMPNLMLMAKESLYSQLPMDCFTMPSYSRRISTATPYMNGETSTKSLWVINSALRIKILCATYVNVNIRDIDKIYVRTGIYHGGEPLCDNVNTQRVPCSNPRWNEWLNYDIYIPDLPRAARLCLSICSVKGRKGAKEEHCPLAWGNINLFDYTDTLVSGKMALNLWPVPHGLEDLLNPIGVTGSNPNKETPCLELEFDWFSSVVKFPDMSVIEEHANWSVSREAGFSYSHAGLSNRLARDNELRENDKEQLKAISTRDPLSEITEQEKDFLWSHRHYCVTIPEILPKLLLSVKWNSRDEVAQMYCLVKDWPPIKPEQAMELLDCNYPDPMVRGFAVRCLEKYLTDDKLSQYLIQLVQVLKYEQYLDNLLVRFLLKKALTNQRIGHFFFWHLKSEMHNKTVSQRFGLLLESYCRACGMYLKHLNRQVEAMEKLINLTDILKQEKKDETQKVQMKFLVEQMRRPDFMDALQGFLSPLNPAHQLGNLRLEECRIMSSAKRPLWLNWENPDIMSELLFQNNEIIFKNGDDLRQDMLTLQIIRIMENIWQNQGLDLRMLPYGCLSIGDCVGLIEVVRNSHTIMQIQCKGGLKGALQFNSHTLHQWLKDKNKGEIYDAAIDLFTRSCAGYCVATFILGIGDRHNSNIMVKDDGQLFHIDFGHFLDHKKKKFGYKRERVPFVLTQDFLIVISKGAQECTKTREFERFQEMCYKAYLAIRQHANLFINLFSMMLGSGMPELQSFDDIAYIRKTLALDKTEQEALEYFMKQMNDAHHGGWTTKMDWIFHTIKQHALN
# PI3K-δ, sequence (O00329 whole entry): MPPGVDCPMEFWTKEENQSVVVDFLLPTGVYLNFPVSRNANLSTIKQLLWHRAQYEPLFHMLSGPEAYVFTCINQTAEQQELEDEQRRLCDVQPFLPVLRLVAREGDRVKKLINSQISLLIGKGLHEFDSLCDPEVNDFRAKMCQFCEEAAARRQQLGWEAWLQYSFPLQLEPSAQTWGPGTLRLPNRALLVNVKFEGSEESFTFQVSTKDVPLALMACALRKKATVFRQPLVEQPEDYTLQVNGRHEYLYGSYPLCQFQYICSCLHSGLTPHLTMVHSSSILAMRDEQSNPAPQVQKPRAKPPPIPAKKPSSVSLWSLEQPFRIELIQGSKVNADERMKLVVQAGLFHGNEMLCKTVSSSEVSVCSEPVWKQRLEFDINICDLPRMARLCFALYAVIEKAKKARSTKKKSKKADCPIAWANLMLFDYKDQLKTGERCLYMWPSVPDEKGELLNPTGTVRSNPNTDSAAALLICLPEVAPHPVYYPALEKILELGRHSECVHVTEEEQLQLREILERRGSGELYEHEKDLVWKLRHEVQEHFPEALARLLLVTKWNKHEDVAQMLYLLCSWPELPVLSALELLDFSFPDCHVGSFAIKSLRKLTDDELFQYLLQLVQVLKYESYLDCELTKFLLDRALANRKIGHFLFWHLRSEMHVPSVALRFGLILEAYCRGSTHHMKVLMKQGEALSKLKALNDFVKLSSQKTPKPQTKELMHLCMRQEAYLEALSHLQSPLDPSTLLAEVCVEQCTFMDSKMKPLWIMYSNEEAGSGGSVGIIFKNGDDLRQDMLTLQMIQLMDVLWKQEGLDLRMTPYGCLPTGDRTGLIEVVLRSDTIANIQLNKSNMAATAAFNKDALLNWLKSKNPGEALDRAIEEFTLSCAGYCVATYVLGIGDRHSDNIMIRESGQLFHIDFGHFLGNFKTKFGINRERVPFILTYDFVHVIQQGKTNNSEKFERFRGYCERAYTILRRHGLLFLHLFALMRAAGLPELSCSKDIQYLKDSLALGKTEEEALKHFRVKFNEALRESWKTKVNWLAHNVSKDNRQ
# PI3K-δ, sequence (P27986 whole entry partner): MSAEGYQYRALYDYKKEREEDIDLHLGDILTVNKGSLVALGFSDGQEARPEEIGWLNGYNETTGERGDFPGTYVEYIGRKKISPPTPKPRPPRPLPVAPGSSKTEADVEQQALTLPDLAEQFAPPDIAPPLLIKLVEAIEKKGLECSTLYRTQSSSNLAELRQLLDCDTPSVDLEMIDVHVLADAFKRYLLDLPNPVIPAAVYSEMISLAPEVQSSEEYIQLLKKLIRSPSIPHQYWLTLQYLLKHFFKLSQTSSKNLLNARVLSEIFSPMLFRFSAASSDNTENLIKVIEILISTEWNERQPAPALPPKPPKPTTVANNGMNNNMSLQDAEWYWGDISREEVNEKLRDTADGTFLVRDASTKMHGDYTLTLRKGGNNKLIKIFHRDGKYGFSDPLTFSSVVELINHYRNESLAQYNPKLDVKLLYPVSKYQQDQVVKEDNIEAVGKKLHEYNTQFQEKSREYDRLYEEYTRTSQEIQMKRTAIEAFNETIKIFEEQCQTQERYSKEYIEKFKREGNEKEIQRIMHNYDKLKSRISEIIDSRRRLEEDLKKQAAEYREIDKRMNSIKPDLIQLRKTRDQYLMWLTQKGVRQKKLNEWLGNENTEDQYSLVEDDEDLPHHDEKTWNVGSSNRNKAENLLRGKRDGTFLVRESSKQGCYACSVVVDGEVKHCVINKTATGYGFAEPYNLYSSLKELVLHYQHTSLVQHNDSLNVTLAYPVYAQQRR
# PI3K-β, sequence (P42338 whole entry): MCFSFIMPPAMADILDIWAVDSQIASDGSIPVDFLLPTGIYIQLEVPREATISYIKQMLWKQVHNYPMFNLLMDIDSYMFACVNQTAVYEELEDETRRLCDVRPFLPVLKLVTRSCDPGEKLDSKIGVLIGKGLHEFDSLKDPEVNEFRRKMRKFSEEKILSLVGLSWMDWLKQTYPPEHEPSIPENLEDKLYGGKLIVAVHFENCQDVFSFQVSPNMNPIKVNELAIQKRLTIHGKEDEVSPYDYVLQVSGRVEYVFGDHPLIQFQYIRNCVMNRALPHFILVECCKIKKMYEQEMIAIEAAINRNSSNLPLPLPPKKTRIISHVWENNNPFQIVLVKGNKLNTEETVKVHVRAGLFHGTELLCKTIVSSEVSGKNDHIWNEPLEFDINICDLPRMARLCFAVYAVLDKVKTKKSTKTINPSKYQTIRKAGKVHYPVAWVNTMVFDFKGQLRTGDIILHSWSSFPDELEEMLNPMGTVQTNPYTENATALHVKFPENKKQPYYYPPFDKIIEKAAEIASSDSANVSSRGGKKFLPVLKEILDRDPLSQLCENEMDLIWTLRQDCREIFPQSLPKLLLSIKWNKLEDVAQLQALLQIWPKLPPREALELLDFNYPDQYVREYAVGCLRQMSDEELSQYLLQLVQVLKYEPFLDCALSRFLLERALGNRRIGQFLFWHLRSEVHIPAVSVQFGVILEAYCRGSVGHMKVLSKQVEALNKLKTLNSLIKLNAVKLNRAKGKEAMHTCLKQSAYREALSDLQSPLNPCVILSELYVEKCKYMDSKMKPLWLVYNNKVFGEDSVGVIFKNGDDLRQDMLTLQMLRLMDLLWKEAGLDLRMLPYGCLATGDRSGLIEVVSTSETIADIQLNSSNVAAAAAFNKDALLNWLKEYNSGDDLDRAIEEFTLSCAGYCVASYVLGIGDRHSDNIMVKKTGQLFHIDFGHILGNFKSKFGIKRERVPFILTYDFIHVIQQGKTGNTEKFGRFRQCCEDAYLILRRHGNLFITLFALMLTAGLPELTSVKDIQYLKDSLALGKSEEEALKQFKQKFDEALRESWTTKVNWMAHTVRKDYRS
# PI3K-β, sequence (P27986 whole entry partner): as the sequence (P27986 whole entry partner) above
# PI3K-γ, sequence (P48736 whole entry): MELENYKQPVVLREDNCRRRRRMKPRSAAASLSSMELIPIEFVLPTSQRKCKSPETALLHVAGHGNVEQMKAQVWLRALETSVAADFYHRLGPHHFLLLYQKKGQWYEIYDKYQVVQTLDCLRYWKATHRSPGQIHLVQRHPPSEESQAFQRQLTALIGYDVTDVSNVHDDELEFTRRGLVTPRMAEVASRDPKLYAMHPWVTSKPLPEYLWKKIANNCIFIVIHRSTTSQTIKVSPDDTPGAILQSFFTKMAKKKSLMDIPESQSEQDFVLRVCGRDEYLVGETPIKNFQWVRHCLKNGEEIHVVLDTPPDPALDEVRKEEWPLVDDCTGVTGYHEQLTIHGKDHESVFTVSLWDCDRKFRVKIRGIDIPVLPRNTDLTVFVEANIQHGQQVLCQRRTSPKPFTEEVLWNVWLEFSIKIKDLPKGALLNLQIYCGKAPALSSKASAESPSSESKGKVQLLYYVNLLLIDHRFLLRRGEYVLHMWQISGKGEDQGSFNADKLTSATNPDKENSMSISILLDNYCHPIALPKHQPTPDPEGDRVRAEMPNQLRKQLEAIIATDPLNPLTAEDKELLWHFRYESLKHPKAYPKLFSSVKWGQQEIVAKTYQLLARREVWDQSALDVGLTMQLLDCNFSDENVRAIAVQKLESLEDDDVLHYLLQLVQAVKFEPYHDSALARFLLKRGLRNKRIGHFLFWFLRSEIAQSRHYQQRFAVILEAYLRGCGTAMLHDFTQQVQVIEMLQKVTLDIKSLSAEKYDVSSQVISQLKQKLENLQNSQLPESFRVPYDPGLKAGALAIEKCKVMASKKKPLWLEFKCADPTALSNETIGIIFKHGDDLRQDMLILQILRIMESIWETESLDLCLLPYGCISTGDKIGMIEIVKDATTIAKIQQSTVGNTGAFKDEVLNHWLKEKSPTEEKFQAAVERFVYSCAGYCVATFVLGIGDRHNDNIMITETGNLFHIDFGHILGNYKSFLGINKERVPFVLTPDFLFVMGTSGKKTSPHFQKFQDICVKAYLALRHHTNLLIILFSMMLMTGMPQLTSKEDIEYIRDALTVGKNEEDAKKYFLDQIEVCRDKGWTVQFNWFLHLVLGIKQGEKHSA
IC50 (PI3K-δ),IC50 (PI3K-γ),IC50 (PI3K-β),IC50 [1],blood glucose [2],blood insulin concentration [3],SMILES,"glomerular lesions (glomerular lesion score) (NZBWF1/J mice; 4 weeks after uninephrectomy, histology, FIG. 1C)","kidney-to-body weight ratio (NZBWF1/J mice; 4 weeks, female uninephrectomized NZBWF1/J mice)","albuminuria (urinary albumin to creatinine ratio) (NZBWF1/J mice; 4 weeks, female uninephrectomized NZBWF1/J mice, vs vehicle, FIG. 1A)","blood urea nitrogen levels (NZBWF1/J mice; 4 weeks, female uninephrectomized NZBWF1/J mice, vs vehicle, FIG. 1B)"
200 to 500 nM,200 to 500 nM,> 1000 nM,≤ 50 nM,–,–,"Cc1nc(NC(=O)N2C[C@H](O)C[C@H]2C(N)=S)sc1-c1ccnc(C(C)(C)C(F)(F)F)c1 [Compound 13, (2S,4R)-2-carbamothioyl-4-hydroxy-N-(4-methyl-5-(2-(1,1,1-trifluoro-2-methylpropan-2-yl)pyridin-4-yl)thiazol-2-yl)pyrrolidine-1-carboxamide]",–,–,–,–
200 to 500 nM,200 to 500 nM,> 1000 nM,50 to 200 nM,–,–,"Cc1nc(NC(=O)N2C[C@H](F)C[C@H]2C(N)=S)sc1-c1ccnc(C(C)(C)C(F)(F)F)c1 [Compound 2, (2S,4R)-2-carbamothioyl-4-fluoro-N-(4-methyl-5-(2-(1,1,1-trifluoro-2-methylpropan-2-yl)pyridin-4-yl)thiazol-2-yl)pyrrolidine-1-carboxamide]",–,–,–,–
200 to 500 nM,200 to 500 nM,> 1000 nM,≤ 50 nM,–,–,"Cc1nc(NC(=O)N2CC[C@H](O)[C@H]2C(N)=S)sc1-c1ccnc(C(C)(C)C(F)(F)F)c1 [Compound 14, (2S,3S)-2-carbamothioyl-3-hydroxy-N-(4-methyl-5-(2-(1,1,1-trifluoro-2-methylpropan-2-yl)pyridin-4-yl)thiazol-2-yl)pyrrolidine-1-carboxamide]",–,–,–,–
> 1000 nM,> 1000 nM,> 1000 nM,> 1000 nM,–,–,"Cc1nc(NC(=O)N2CC3(C[C@H]2C(N)=S)CC3(F)F)sc1-c1ccnc(C(C)(C)C(F)(F)F)c1 (stereo partly drawn) [Compound 4, (S)-6-carbamothioyl-N-(4-methyl-5-(2-(1,1,1-trifluoro-2-methylpropan-2-yl)pyridin-4-yl)thiazol-2-yl)-1,1-difluoro-5-azaspiro[2,4]heptane-5-carboxamide]",–,–,–,–
> 1000 nM,> 1000 nM,> 1000 nM,> 1000 nM,–,–,"Cc1nc(NC(=O)N2CCC[C@@]2(C)C(N)=S)sc1-c1ccnc(C(C)(C)C(F)(F)F)c1 [Compound 6, (S)-2-carbamothioyl-2-methyl-N-(4-methyl-5-(2-(1,1,1-trifluoro-2-methylpropan-2-yl)pyridin-4-yl)thiazol-2-yl)pyrrolidine-1-carboxamide]",–,–,–,–
> 1000 nM,200 to 500 nM,> 1000 nM,50 to 200 nM,–,–,"Cc1nc(NC(=O)N2C[C@@H](F)C[C@H]2C(N)=S)sc1-c1ccnc(C(C)(C)C(F)(F)F)c1 [Compound 3, (2S,4S)-2-carbamothioyl-4-fluoro-N-(4-methyl-5-(2-(1,1,1-trifluoro-2-methylpropan-2-yl)pyridin-4-yl)thiazol-2-yl)pyrrolidine-1-carboxamide]",–,–,–,–
500 to 1000 nM,200 to 500 nM,> 1000 nM,50 to 200 nM,–,–,"CO[C@H]1C[C@@H](C(N)=S)N(C(=O)Nc2nc(C)c(-c3ccnc(C(C)(C)C(F)(F)F)c3)s2)C1 [Compound 8, (2S,4S)-2-carbamothioyl-4-methoxy-N-(4-methyl-5-(2-(1,1,1-trifluoro-2-methylpropan-2-yl)pyridin-4-yl)thiazol-2-yl)pyrrolidine-1-carboxamide]",–,–,–,–
> 1000 nM,> 1000 nM,> 1000 nM,500 to 1000 nM,–,–,"Cc1nc(NC(=O)N2C[C@@H](C(F)(F)F)C[C@H]2C(N)=S)sc1-c1ccnc(C(C)(C)C(F)(F)F)c1 [Compound 12, (2S,4S)-2-carbamothioyl-N-(4-methyl-5-(2-(1,1,1-trifluoro-2-methylpropan-2-yl)pyridin-4-yl)thiazol-2-yl)-4-(trifluoromethyl)pyrrolidine-1-carboxamide]",–,–,–,–
> 1000 nM,> 1000 nM,> 1000 nM,> 1000 nM,–,–,"Cc1nc(NC(=O)N2[C@@H](C)CC[C@H]2C(N)=S)sc1-c1ccnc(C(C)(C)C(F)(F)F)c1 [Compound 10, (2S,5S)-2-carbamothioyl-5-methyl-N-(4-methyl-5-(2-(1,1,1-trifluoro-2-methylpropan-2-yl)pyridin-4-yl)thiazol-2-yl)pyrrolidine-1-carboxamide]",–,–,–,–
> 1000 nM,> 1000 nM,> 1000 nM,200 to 500 nM,–,–,"Cc1nc(NC(=O)N2[C@H](C)CC[C@H]2C(N)=S)sc1-c1ccnc(C(C)(C)C(F)(F)F)c1 [Compound 9, (2S,5R)-2-carbamothioyl-5-methyl-N-(4-methyl-5-(2-(1,1,1-trifluoro-2-methylpropan-2-yl)pyridin-4-yl)thiazol-2-yl)pyrrolidine-1-carboxamide]",–,–,–,–
500 to 1000 nM,200 to 500 nM,> 1000 nM,50 to 200 nM,–,–,"CO[C@@H]1C[C@@H](C(N)=S)N(C(=O)Nc2nc(C)c(-c3ccnc(C(C)(C)C(F)(F)F)c3)s2)C1 [Compound 7, (2S,4R)-2-carbamothioyl-4-methoxy-N-(4-methyl-5-(2-(1,1,1-trifluoro-2-methylpropan-2-yl)pyridin-4-yl)thiazol-2-yl)pyrrolidine-1-carboxamide]",–,–,–,–
200 to 500 nM,> 1000 nM,> 1000 nM,200 to 500 nM,–,–,"Cc1nc(NC(=O)N2CC(F)(F)C[C@H]2C(N)=S)sc1-c1ccnc(C(C)(C)C(F)(F)F)c1 [Compound 1, (S)-2-carbamothioyl-4,4-difluoro-N-(4-methyl-5-(2-(1,1,1-trifluoro-2-methylpropan-2-yl)pyridin-4-yl)thiazol-2-yl)pyrrolidine-1-carboxamide]",–,–,–,–
200 to 500 nM,200 to 500 nM,> 1000 nM,≤ 50 nM,modest increase,no increase,"Cc1nc(NC(=O)N2CCC[C@H]2C(N)=S)sc1-c1ccnc(C(C)(C)C(F)(F)F)c1 [Compound 5, (S)-2-carbamothioyl-N-(4-methyl-5-(2-(1,1,1-trifluoro-2-methylpropan-2-yl)pyridin-4-yl)thiazol-2-yl)pyrrolidine-1-carboxamide]",remained stable,notably decreased,significant reductions,significant reductions
